Test results as given in paper PMC10944509, “Structural and mechanistic insights into activation of the human RNA ligase RTCB by Archease” (Nature Communications, 2024).

Experiments:
[1] = molecular target: T1, human RTCB-Archease complex (Homo sapiens, UniProt Q8IWT0+Q9Y3I0); test: X-ray crystal structure, […] Å; assay type: binding; conditions: Mn2+ (sites A, B, C); RTCB active site, gamma-phosphate coordinated by Archease-bound Mn2+; non-hydrolyzable GTP analog; 291 K
T1 construct: full-length RTCB from Sf21 insect cells (His6 tag, TEV-cleaved optionally) with Archease isoform 1 from E. coli (N-terminal His6, thrombin site, tag removal optional); 1:1 complex
T1 sequence (Q9Y3I0 1-505): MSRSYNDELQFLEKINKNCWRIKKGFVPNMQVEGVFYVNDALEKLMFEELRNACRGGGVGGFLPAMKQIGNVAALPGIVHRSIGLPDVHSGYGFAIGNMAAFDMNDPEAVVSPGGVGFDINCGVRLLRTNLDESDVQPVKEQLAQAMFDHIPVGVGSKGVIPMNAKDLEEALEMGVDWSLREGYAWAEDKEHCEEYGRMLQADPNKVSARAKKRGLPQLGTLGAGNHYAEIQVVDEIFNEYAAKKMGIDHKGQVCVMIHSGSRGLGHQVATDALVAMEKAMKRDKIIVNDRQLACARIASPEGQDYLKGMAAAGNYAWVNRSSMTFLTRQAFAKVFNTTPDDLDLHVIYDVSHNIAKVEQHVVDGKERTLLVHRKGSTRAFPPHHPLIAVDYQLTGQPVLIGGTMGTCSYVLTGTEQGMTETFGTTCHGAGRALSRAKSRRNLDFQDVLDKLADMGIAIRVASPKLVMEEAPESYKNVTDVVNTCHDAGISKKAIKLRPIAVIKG
T1 sequence (Q8IWT0 1-167): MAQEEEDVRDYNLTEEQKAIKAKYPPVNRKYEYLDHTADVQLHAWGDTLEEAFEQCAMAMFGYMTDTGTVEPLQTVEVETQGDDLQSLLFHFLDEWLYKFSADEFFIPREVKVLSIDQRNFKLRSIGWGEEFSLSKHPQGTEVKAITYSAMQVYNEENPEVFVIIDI

[2] = molecular target: T1, human RTCB-Archease complex; test: X-ray crystal structure, […] Å; assay type: binding; conditions: covalent; phosphoramidate with RTCB H428, formed from GTP in co-crystallization; Mn2+ (sites A, C); 291 K
[3] = molecular target: T1, human RTCB-Archease complex; test: radioactive guanylylation assay, gel autoradiography; assay type: biochemical; conditions: covalent; labelled compound (alpha-32P-GTP 80 nM); RTCB 1 µM, Archease 1 µM, 0.5 mM MnCl2, pH 7.5, 30 °C
[4] = molecular target: human RTCB (human) (UniProt Q9Y3I0)

## Nc1nc2c(ncn2[C@@H]2O[C@H](COP(=O)(O)CP(=O)(O)OP(=O)(O)O)[C@@H](O)[C@H]2O)c(=O)[nH]1 [GMPCPP, guanosine-5’-[(α,β)-methyleno]triphosphate]
[1]
  X-ray crystal structure, 2.3 Å: RTCB-Archease complex with a well-resolved GMPCPP molecule in the active site of RTCB

## Nc1nc2c(ncn2[C@@H]2O[C@H](COP(=O)(O)O)[C@@H](O)[C@H]2O)c(=O)[nH]1 [GMP]
[2]
  X-ray crystal structure, 2.2 Å: GTP reacted with the active site histidine H428 to form the guanylylated RTCB-H428-GMP intermediate

## Nc1nc2c(ncn2[C@@H]2O[C@H](COP(=O)(O)OP(=O)(O)OP(=O)(O)O)[C@@H](O)[C@H]2O)c(=O)[nH]1 [GTP]
[3]
  radioactive guanylylation assay, gel autoradiography: We detected the formation of guanylylated RTCB only in the presence of Archease

## human Archease (isoform 1) (from UniProt Q8IWT0 1-167) (natural protein)
[4]
  apparent rate constant of XBP1 intron circularization by RTCB (250 nM) with 1 uM Archease, GTP and Mn2+; no ligated product without Archease: 0.015 min⁻¹
